Results taken from patent US20160075653A1, “NEMATICIDAL N-(PHENYLCYCLOALKYL)CARBOXAMIDES AND N-(PHENYLCYCLOALKYL)THIOCARBOXAMIDES” (BAYER CROPSCIENCE AKTIENGESELLSCHAFT, priority 2013, published 2016).

experiment: Measurement of log P values by HPLC on reversed phase columns (methods [a] pH 2.3, [b] pH 2.7, [c] pH 7.8); assay type: physicochemical; conditions: HPLC on reversed phase columns, method [b], pH 2.7
Outline: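 Retention times were converted to log P by linear interpolation between linear alkan-2-one standards (3 to 16 carbons) of known log P. Eluents, each with 10% to 95% acetonitrile gradient: phosphoric acid 0.1% at pH 2.3 [a]; formic acid 0.1% at pH 2.7, LC-MS [b]; ammonium hydrogen carbonate 0.001 molar at pH 7.8, LC-MS [c].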

Row | logP | Structure (SMILES)
1 | 2.66^[b] | Cc1nc(C(F)(F)F)c(C(=O)NC2CC2c2ccccc2)s1 (stereo not drawn) [Example 8]
2 | 3.87^[b] | Cc1nc(C(F)(F)F)c(C(=O)NC2CC2c2ccc(F)cc2)s1 (stereo not drawn) [Example 26]
3 | 4.35^[b] | Cc1nc(C(F)(F)F)c(C(=O)NC2CC2c2ccc(Cl)cc2)s1 (stereo not drawn) [Example 28]
4 | 3.19^[b] | O=C(NC1CC1c1ccccc1Cl)c1ccccc1Br (stereo not drawn) [Example 48]

Second part, the compound before the results:

Row | Structure (SMILES) | logP
5 | Cn1cc(C(=O)NC2CC2c2ccccc2)c(C(F)(F)F)n1 (stereo not drawn) [Example 4] | 2.34^[b]
6 | Cc1nn(C)c(F)c1C(=O)NC1CC1c1ccccc1 (stereo not drawn) [Example 5] | 2.00^[b]
7 | Cc1nn(C)cc1C(=O)NC1CC1c1ccccc1 (stereo not drawn) [Example 6] | 1.70^[b]
8 | Cc1nn(C)c(Cl)c1C(=O)NC1CC1c1ccccc1 (stereo not drawn) [Example 9] | 2.12^[b]
9 | Cc1nn(C)c(F)c1C(=O)NC1CC1c1ccc(Cl)cc1 (stereo not drawn) [Example 12] | 3.04^[b]
10 | Cc1nn(C)c(C)c1C(=O)NC1CC1c1ccc(Cl)cc1 (stereo not drawn) [Example 13] | 2.89^[b]
11 | Cc1nn(C)c(Cl)c1C(=O)NC1CC1c1ccc(Cl)cc1 (stereo not drawn) [Example 14] | 2.22^[b]
12 | Cc1nn(C)c(C)c1C(=O)NC1CC1c1ccc(F)cc1 (stereo not drawn) [Example 15] | 2.84^[b]
13 | Cc1nn(C)cc1C(=O)NC1CC1c1ccc(F)cc1 (stereo not drawn) [Example 16] | 2.13^[b]
14 | Cc1nn(C)c(F)c1C(=O)NC1CC1c1ccc(F)cc1 (stereo not drawn) [Example 18] | 3.01^[b]
15 | Cc1nn(C)cc1C(=O)NC1CC1c1ccc(Cl)cc1 (stereo not drawn) [Example 19] | 2.63^[b]
16 | Cc1nn(C)c(C)c1C(=O)NC1CC1c1ccc(Br)cc1 (stereo not drawn) [Example 21] | 3.26^[b]
17 | Cc1nn(C)cc1C(=O)NC1CC1c1ccc(Br)cc1 (stereo not drawn) [Example 23] | 3.20^[b]
18 | Cn1cc(C(=O)NC2CC2c2ccc(Br)cc2)c(C(F)(F)F)n1 (stereo not drawn) [Example 25] | 3.23^[b]
19 | O=C(NC1CC1c1ccc(Cl)cc1)c1ccc(Cl)nc1 (stereo not drawn) [Example 31] | 3.53^[b]
20 | O=C(NC1CC1c1ccc(Cl)cc1)c1cccnc1Cl (stereo not drawn) [Example 34] | 2.43^[b]
21 | O=C(NC1CC1c1ccc(Br)cc1)c1cccnc1Cl (stereo not drawn) [Example 35] | 2.34^[b]
22 | O=C(NC1CC1c1ccc(F)cc1)c1cnc(Cl)cc1Cl (stereo not drawn) [Example 36] | 2.70^[b]
23 | O=C(NC1CC1c1ccccc1)c1ccncc1 (stereo not drawn) [Example 39] | 1.30^[b]
24 | O=C(NC1CC1c1ccccc1)c1ccccc1C(F)(F)F (stereo not drawn) [Example 40] | 2.79^[b]

same assay, conditions: HPLC on reversed phase columns, method [c], pH 7.8

Row | Structure (SMILES) | logP
25 | O=C(NC1CC1c1ccc(Cl)cc1)c1cccnc1Cl (stereo not drawn) [Example 34] | 2.39^[c];

same assay, conditions: HPLC reversed phase, method [b] (pH 2.7)

Row | Structure (SMILES) | logP
26 | O=C(NC1CC1c1ccc(Cl)cc1)c1ccccc1I (stereo not drawn) [Compound 273] | 2.94^[b]
27 | O=C(NC1CC1c1ccc(Cl)cc1)c1cccnc1Cl (stereo not drawn) [Compound 274] | 2.14^[b]
28 | Cc1ccccc1C(=O)NC1CC1c1ccc(Cl)cc1 (stereo not drawn) [Compound 276] | 2.76^[b]
29 | O=C(NC1CCCC1c1c(F)cccc1F)c1ccccc1C(F)(F)F (stereo not drawn) [Compound 323] | 3.43^[b]
30 | O=C(NC1CC1c1ccc(Cl)cc1)c1ccsc1I (stereo not drawn) [Compound 460] | 2.94^[b]
31 | O=C(NC1CCC1c1ccc(F)cc1C(F)(F)F)c1ncccc1Cl (stereo not drawn) [Compound 478] | 3.39^[b]

same assay, conditions: HPLC reversed phase, method [c] pH 7.8

Row | Structure (SMILES) | logP
32 | O=C(NC1CC1c1ccc(Cl)cc1)c1ccccc1I (stereo not drawn) [Compound 273] | 2.88^[c];
33 | O=C(NC1CC1c1ccc(Cl)cc1)c1cccnc1Cl (stereo not drawn) [Compound 274] | 2.10^[c];
34 | Cc1ccccc1C(=O)NC1CC1c1ccc(Cl)cc1 (stereo not drawn) [Compound 276] | 2.70^[c];
35 | O=C(NC1CC1c1ccc(Cl)cc1)c1ccsc1I (stereo not drawn) [Compound 460] | 2.93^[c];

same assay, conditions: HPLC-MS, method letter not given

Row | Structure (SMILES) | log P
36 | Cn1cc(C(=O)NC2CCC2c2ccc(Cl)cc2Cl)c(C(F)F)n1 (single isomer, unassigned) [Preparation Example 2 trans-Isomer, trans-N-[2-(2,4-dichlorophenyl)cyclobutyl]-3-(difluoromethyl)-1-methyl-1H-pyrazole-4-carboxamide] | 3.26

same assay, conditions: method [b], HPLC reversed phase, pH 2.7

Row | logP | Structure (SMILES)
37 | 3.60^[b] | Cn1cc(C(=O)N(C2CC2)C2CCCCC2c2ccccc2)c(C(F)F)n1 (stereo not drawn) [Example 138]
38 | 3.53^[b] | Cc1nn(C)c(F)c1C(=O)N(C1CC1)C1CCCCC1c1ccccc1 (stereo not drawn) [Example 139]
39 | 3.90^[b] | Cn1cc(C(=O)N(C2CC2)C2CCCCC2c2ccccc2)c(C(F)(F)F)c1 (stereo not drawn) [Example 140]
40 | 4.18^[b] | Cc1nc(C(F)F)c(C(=O)N(C2CC2)C2CCCCC2c2ccccc2)s1 (stereo not drawn) [Example 141]
41 | 3.96^[b] | Cn1cc(C(=O)N(C2CC2)C2CCCCC2c2ccccc2)c(C(F)(F)F)n1 (stereo not drawn) [Example 142]
42 | 3.55^[b] | Cn1cc(C(=O)N(C2CC2)C2CCCCC2c2ccccc2)c(C(F)F)n1 (stereo not drawn) [Example 143]
43 | 3.83^[b] | CCc1nn(C)c(F)c1C(=O)N(C1CC1)C1CCCCC1c1ccccc1 (stereo not drawn) [Example 144]
44 | 3.60^[b] | Cn1cc(C(=O)N(C2CC2)C2CCCCC2c2ccccc2)c(I)n1 (stereo not drawn) [Example 145]
45 | 3.13^[b] | Cc1nn(C)c(C)c1C(=O)N(C1CC1)C1CCCCC1c1ccccc1 (stereo not drawn) [Example 146]
46 | 4.69^[b] | Cc1nc(C(F)(F)F)c(C(=O)N(C2CC2)C2CCCCC2c2ccccc2)s1 (stereo not drawn) [Example 147]
47 | 3.94^[b] | Cc1nn(C)c(F)c1C(=O)N(C1CC1)C1CCCCC1c1ccccc1Cl (stereo not drawn) [Example 154]
48 | 4.23^[b] | Cn1cc(C(=O)N(C2CC2)C2CCCC2c2ccc(Cl)cc2Cl)c(C(F)F)n1 (stereo not drawn) [Example 155]
49 | 3.85^[b] | Cn1cc(C(=O)N(C2CC2)C2CCCC2c2ccccc2Cl)c(C(F)F)n1 (stereo not drawn) [Example 156]
50 | 4.59^[b] | Cn1cc(C(=O)N(C2CC2)C2CCCCC2c2ccc(Cl)cc2Cl)c(C(F)F)n1 (stereo not drawn) [Example 157]
51 | 4.03^[b] | Cn1cc(C(=O)N(C2CC2)C2CCCCC2c2ccccc2Cl)c(C(F)F)n1 (stereo not drawn) [Example 158]
52 | 4.18^[b] | Cc1nn(C)c(F)c1C(=O)N(C1CC1)C1CCCC1c1ccc(Cl)cc1Cl (stereo not drawn) [Example 159]
53 | 4.65^[b] | CCc1nn(C)c(F)c1C(=O)N(C1CC1)C1CCCC1c1ccc(Cl)cc1Cl (stereo not drawn) [Example 160]
54 | 5.08^[b] | CCc1nn(C)c(F)c1C(=O)N(C1CC1)C1CCCCC1c1ccc(Cl)cc1Cl (stereo not drawn) [Example 161]

Row | logP | Structure (SMILES)
55 | 4.39^[b] | CCc1nn(C)c(F)c1C(=O)N(C1CC1)C1CCCCC1c1ccccc1Cl (stereo not drawn) [Example 162]
56 | 5.85^[b] | Cc1cc(C(=O)N(C2CC2)C2CCCCC2c2ccc(Cl)cc2Cl)c(C)o1 (stereo not drawn) [Example 163]
57 | 3.71^[b] | Cc1nn(C)c(F)c1C(=O)N(C1CC1)C1CCCC1c1ccccc1Cl (stereo not drawn) [Example 164]
58 | 4.59^[b] | Cc1nn(C)c(F)c1C(=O)N(C1CC1)C1CCCCC1c1ccc(Cl)cc1Cl (stereo not drawn) [Example 165]
59 | 4.67^[b] | Cn1nc(C(F)F)c(C(=O)N(C2CC2)C2CCCC2c2ccc(Cl)cc2Cl)c1F (stereo not drawn) [Example 166]
60 | 4.31^[b] | Cn1nc(C(F)F)c(C(=O)N(C2CC2)C2CCCC2c2ccccc2Cl)c1F (stereo not drawn) [Example 167]
61 | 5.05^[b] | Cn1nc(C(F)F)c(C(=O)N(C2CC2)C2CCCCC2c2ccc(Cl)cc2Cl)c1F (stereo not drawn) [Example 168]
62 | 4.49^[b] | Cn1nc(C(F)F)c(C(=O)N(C2CC2)C2CCCCC2c2ccccc2Cl)c1F (stereo not drawn) [Example 169]
63 | 5.25^[b] | Cc1nc(C(F)F)c(C(=O)N(C2CC2)C2CCCCC2c2ccc(Cl)cc2Cl)s1 (stereo not drawn) [Example 170]
64 | 4.67^[b] | Cc1nc(C(F)F)c(C(=O)N(C2CC2)C2CCCCC2c2ccccc2Cl)s1 (stereo not drawn) [Example 171]
65 | 4.21^[b] | CCc1nn(C)c(F)c1C(=O)N(C1CC1)C1CCCC1c1ccccc1Cl (stereo not drawn) [Example 172]
66 | 4.85^[b] | Cc1nc(C(F)F)c(C(=O)N(C2CC2)C2CCCC2c2ccc(Cl)cc2Cl)s1 (stereo not drawn) [Example 173]
67 | 4.51^[b] | Cc1nc(C(F)F)c(C(=O)N(C2CC2)C2CCCC2c2ccccc2Cl)s1 (stereo not drawn) [Example 174]
68 | 5.39^[b] | Cc1cc(C(=O)N(C2CC2)C2CCCC2c2ccc(Cl)cc2Cl)c(C)o1 (stereo not drawn) [Example 175]
69 | 4.95^[b] | Cc1cc(C(=O)N(C2CC2)C2CCCC2c2ccccc2Cl)c(C)o1 (stereo not drawn) [Example 176]
70 | 5.17^[b] | Cc1cc(C(=O)N(C2CC2)C2CCCCC2c2ccccc2Cl)c(C)o1 (stereo not drawn) [Example 177]
71 | 2.61^[b] | Cn1nc(C(F)F)c(C(=O)NC2CC2c2ccc(Cl)cc2)c1F (stereo not drawn) [Example 179]
72 | 4.18^[b] | Cn1nc(C(F)F)c(C(=O)N(C2CC2)C2CCCCC2(C)c2ccccc2)c1F (stereo not drawn) [Example 180]

The remaining lines, values behind:

Row | Structure (SMILES) | logP
73 | O=C(NC1CC1c1ccc(Cl)cc1)c1sccc1Cl (stereo not drawn) [Compound 203] | 3.51^[b]
74 | N#Cc1ccccc1C(=O)NC1CCCC1c1ccc(F)c(F)c1 (stereo not drawn) [Example 137] | 2.96^[b]
75 | FC(F)(F)c1ccccc1C(=S)NC1CC1c1ccccc1 (stereo not drawn) [Example 148] | 3.69^[b]
76 | Fc1ccc(C2CCCC2NC(=S)c2sccc2C(F)(F)F)cc1F (stereo not drawn) [Example 149] | 4.59^[b]
77 | Fc1ccc(C2CCCC2NC(=S)C2=C(C(F)(F)F)OCCS2)cc1F (stereo not drawn) [Example 150] | 4.21^[b]
78 | Cn1cc(C(=O)NC2CC2c2ccc(Cl)cc2)c(C(F)F)n1 (stereo not drawn) [Example 151] | 2.30^[b]
79 | Cn1nc(C(F)(F)F)c(C(=O)NC2CC2c2ccccc2)c1F (stereo not drawn) [Example 178] | 2.63^[b]

same assay, conditions: method [c], HPLC reversed phase, pH 7.8

Row | Structure (SMILES) | logP
80 | O=C(NC1CC1c1ccc(Cl)cc1)c1sccc1Cl (stereo not drawn) [Compound 203] | 3.45^[c];

same assay, conditions: reversed phase HPLC columns, HPLC-MS, method letter not given; read-out: log P

Row | Structure (SMILES) | chromatographic logP
81 | O=C(N[C@H]1CCC1c1ccccc1C(F)(F)F)c1ccccc1Cl (stereo in doubt) [Preparation Example 4, cis-2-chloro-N-{2-[2-(trifluoromethyl)phenyl]cyclobutyl}benzamide] | 3.3
82 | O=C(N[C@H]1CCC1c1ccccc1C(F)(F)F)c1ccccc1I (stereo in doubt) [Preparation Example 5, cis-2-iodo-N-{2-[2-(trifluoromethyl)phenyl]cyclobutyl}benzamide] | 3.44
83 | O=C(NC1CCC1c1ccccc1Cl)c1ncccc1Cl (stereo not drawn) [Compound 238, trans-3-chloro-N-[2-(2-chlorophenyl)cyclobutyl]pyridine-2-carboxamide] | 3.06

same assay, conditions: reversed phase HPLC columns, pH 2.7, method [b], HPLC reversed phase, pH 2.7; read-out: logP

Row | Structure (SMILES) | chromatographic logP
84 | O=C(NC1CCC1c1ccccc1Cl)c1ncccc1Cl (stereo not drawn) [Compound 238, trans-3-chloro-N-[2-(2-chlorophenyl)cyclobutyl]pyridine-2-carboxamide] | 3.06
